According to ChEMBL document CHEMBL1201862, “PubChem BioAssay data set” (2004):
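Compound exposure: 48 hours, 5 concentrations, 96-well plates. The concentration for 50% growth inhibition is given as GI50.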 Activity calls are given as the source filed them. Cut-off read from the data, not from the text of the source: active = GI50 up to about 1.1 µM and inactive = higher.

Columns and labels:
Experiment in all cases: growth of human tumour cells (NCI), 48 h
RPMI-8226 = test system: RPMI-8226
RXF 393 = test system: RXF 393
NCI-H226 = test system: NCI-H226
Hs-578T = test system: Hs-578T
M14 = test system: M14
OVCAR-4 = test system: OVCAR-4
NCI-H522 = test system: NCI-H522
PC-3 = test system: PC-3
NCI-H23 = test system: NCI-H23
NCI-H460 = test system: NCI-H460
Malme-3M = test system: Malme-3M
MDA-N = test system: MDA-N
SK-MEL-28 = test system: SK-MEL-28
NCI/ADR-RES = test system: NCI/ADR-RES
HT-29 = test system: HT-29
HCT-15 = test system: HCT-15
EKVX = test system: EKVX
MDA-MB-435 = test system: MDA-MB-435
MCF7 = test system: MCF7
BT-549 = test system: BT-549

SMILES	GI50 (RPMI-8226)	GI50 (RXF 393)	GI50 (NCI-H226)	GI50 (Hs-578T)	GI50 (M14)	GI50 (OVCAR-4)	GI50 (NCI-H522)	GI50 (PC-3)	GI50 (NCI-H23)	GI50 (NCI-H460)	GI50 (Malme-3M)	GI50 (MDA-N)	GI50 (SK-MEL-28)	GI50 (NCI/ADR-RES)	GI50 (HT-29)	GI50 (HCT-15)	GI50 (EKVX)	GI50 (MDA-MB-435)	GI50 (MCF7)	GI50 (BT-549)
CCC(C)(C)/C(CC(O)(C(F)(F)F)C(F)(F)F)=N\O	> 100 µM (inactive)	> 100 µM (inactive)	> 100 µM (inactive)	> 100 µM (inactive)	> 100 µM (inactive)	> 100 µM (inactive)	> 100 µM (inactive)	> 100 µM (inactive)	> 100 µM (inactive)	> 100 µM (inactive)	> 100 µM (inactive)	> 100 µM (inactive)	> 100 µM (inactive)	> 100 µM (inactive)	> 100 µM (inactive)	> 100 µM	> 100 µM (inactive)	> 100 µM (inactive)	–	–
Cc1nc2c(O)cc3c4c(n(Cc5ccccc5)c3c2nc1C)C(=O)CCC4	> 100 µM (inactive)	5.46 µM (inactive)	> 100 µM (inactive)	14.4 µM (inactive)	53.2 µM (inactive)	13.9 µM (inactive)	–	49.7 µM (inactive)	51.2 µM (inactive)	83 µM (inactive)	27.8 µM (inactive)	45.9 µM (inactive)	22.5 µM (inactive)	32.1 µM (inactive)	> 100 µM (inactive)	> 100 µM	> 100 µM (inactive)	> 100 µM (inactive)	19.1 µM (inactive)	–
O=C1C(Cl)=C(NCCCN2CCOCC2)C(=O)c2c(O)ccc(O)c21	0.0598 µM (active)	1.75 µM (inactive)	3.54 µM (inactive)	1.27 µM (inactive)	1.96 µM (inactive)	–	–	2.96 µM (inactive)	1.75 µM (inactive)	3.13 µM (inactive)	1.91 µM (inactive)	1.72 µM (inactive)	1.77 µM (inactive)	–	2.75 µM (inactive)	1.26 µM	1 µM (active)	1.85 µM (inactive)	1.55 µM (inactive)	1.64 µM (inactive)
Cc1cc(C)nc(NS(=O)(=O)c2ccc(NC(=O)c3c4ccccc4nc4ccccc34)cc2)n1	47.3 µM (inactive)	–	35.9 µM (inactive)	–	> 100 µM (inactive)	> 100 µM (inactive)	64.3 µM (inactive)	> 100 µM (inactive)	44.2 µM (inactive)	> 100 µM (inactive)	17.4 µM (inactive)	> 100 µM (inactive)	> 100 µM (inactive)	> 100 µM (inactive)	50.8 µM (inactive)	65.9 µM	> 100 µM (inactive)	> 100 µM (inactive)	> 100 µM (inactive)	96.4 µM (inactive)
CSc1ncnc2c1cnn2Cc1cn(COCC(O)CO)nn1 (stereo not given)	> 100 µM (inactive)	–	> 100 µM (inactive)	–	> 100 µM (inactive)	> 100 µM (inactive)	21.2 µM (inactive)	> 100 µM (inactive)	> 100 µM (inactive)	–	–	> 100 µM (inactive)	> 100 µM (inactive)	> 100 µM (inactive)	> 100 µM (inactive)	> 100 µM	> 100 µM (inactive)	> 100 µM (inactive)	> 100 µM (inactive)	> 100 µM (inactive)
COC(=O)c1c2n(c3ccccc13)C[C@H]1OC(C)(C)O[C@@H]21	> 100 µM (inactive)	> 100 µM (inactive)	> 100 µM (inactive)	> 100 µM (inactive)	> 100 µM (inactive)	> 100 µM (inactive)	> 100 µM (inactive)	> 100 µM (inactive)	> 100 µM (inactive)	> 100 µM (inactive)	> 47 µM (inactive)	–	> 100 µM (inactive)	> 100 µM (inactive)	> 100 µM (inactive)	> 100 µM	> 100 µM (inactive)	> 100 µM (inactive)	> 100 µM (inactive)	> 100 µM (inactive)
CCSc1n/c(=C\c2ccco2)c2nncn12	> 100 µM (inactive)	–	> 100 µM (inactive)	> 100 µM (inactive)	> 100 µM (inactive)	–	> 100 µM (inactive)	> 100 µM (inactive)	> 100 µM (inactive)	–	> 100 µM (inactive)	> 100 µM (inactive)	> 100 µM (inactive)	> 100 µM (inactive)	> 100 µM (inactive)	> 100 µM	> 100 µM (inactive)	> 100 µM (inactive)	> 100 µM (inactive)	–
Cn1ccc(C(=O)NCCN(CCNC(=O)c2ccn(C)c(=O)c2O)CCNC(=O)c2cccc(=O)n2O)c(O)c1=O	> 100 µM (inactive)	> 100 µM (inactive)	> 100 µM (inactive)	> 100 µM (inactive)	> 100 µM (inactive)	> 100 µM (inactive)	> 100 µM (inactive)	> 100 µM (inactive)	> 100 µM (inactive)	> 100 µM (inactive)	> 100 µM (inactive)	–	> 100 µM (inactive)	> 100 µM (inactive)	> 100 µM (inactive)	> 100 µM	–	> 100 µM (inactive)	> 100 µM (inactive)	> 100 µM (inactive)
O/N=C(\C=N\O)c1ccc2c(c1)Sc1ccccc1O2	12.2 µM (inactive)	15.8 µM (inactive)	23.2 µM (inactive)	24.9 µM (inactive)	19.9 µM (inactive)	25.1 µM (inactive)	3.53 µM (inactive)	14.8 µM (inactive)	21.6 µM (inactive)	23.7 µM (inactive)	29.5 µM (inactive)	–	30.5 µM (inactive)	–	21.4 µM (inactive)	25.9 µM	16.5 µM (inactive)	12.1 µM (inactive)	16.9 µM (inactive)	14.5 µM (inactive)
CSc1ccc(NC(=O)CCl)cc1	3.32 µM (inactive)	3.17 µM (inactive)	> 10 µM (inactive)	3.1 µM (inactive)	1.92 µM (inactive)	> 10 µM (inactive)	1.95 µM (inactive)	3.9 µM (inactive)	9.59 µM (inactive)	2.41 µM (inactive)	–	4.84 µM (inactive)	5.7 µM (inactive)	3.24 µM (inactive)	3.65 µM (inactive)	5.97 µM	> 10 µM (inactive)	4.03 µM (inactive)	3.51 µM (inactive)	–
O=C(NCC(=O)N1CCCC1C(=O)OC(=O)C1CCCN1C(=O)CNC(=O)OCc1ccccc1)OCc1ccccc1 (stereo not given)	21.7 µM (inactive)	24 µM (inactive)	26.1 µM (inactive)	> 100 µM (inactive)	17.7 µM (inactive)	40.6 µM (inactive)	52.7 µM (inactive)	35.8 µM (inactive)	40.9 µM (inactive)	33.1 µM (inactive)	19.1 µM (inactive)	25.3 µM (inactive)	28.4 µM (inactive)	> 100 µM (inactive)	24.1 µM (inactive)	38.8 µM	42.8 µM (inactive)	22.5 µM (inactive)	21.1 µM (inactive)	–
CC(=O)[C@]12OC(=O)C3=C1[C@H](CC[C@@H]3C)[C@@H](C)C[C@H]2C=C(C)C	7.26 µM (inactive)	–	8.28 µM (inactive)	8.18 µM (inactive)	8.39 µM (inactive)	–	5.36 µM (inactive)	9.2 µM (inactive)	9.14 µM (inactive)	8.63 µM (inactive)	–	7.59 µM (inactive)	–	9.12 µM (inactive)	6.79 µM (inactive)	7.96 µM	–	7.93 µM (inactive)	8.85 µM (inactive)	–
Cc1cc(N(CCC#N)CCC#N)ccc1/C=N/NC(=O)c1cc(Cl)ccc1O	–	> 100 µM (inactive)	> 100 µM (inactive)	59.7 µM (inactive)	> 100 µM (inactive)	> 100 µM (inactive)	37.3 µM (inactive)	> 100 µM (inactive)	> 100 µM (inactive)	> 100 µM (inactive)	> 100 µM (inactive)	> 100 µM (inactive)	–	> 100 µM (inactive)	> 100 µM (inactive)	> 100 µM	> 100 µM (inactive)	> 100 µM (inactive)	> 100 µM (inactive)	–
COc1cccc(C2c3cc4c(cc3OC(N3CCCC3)C2C)OCO4)c1OC (stereo not given)	3.61 µM (inactive)	–	–	1.59 µM (inactive)	9.08 µM (inactive)	–	3.69 µM (inactive)	4.48 µM (inactive)	4.37 µM (inactive)	3.17 µM (inactive)	–	4.76 µM (inactive)	–	2.32 µM (inactive)	2.65 µM (inactive)	2.25 µM	6.49 µM (inactive)	4.06 µM (inactive)	4.58 µM (inactive)	–
O=c1oc(-c2ccc(O)cc2)cc2cc(O)ccc12	48.8 µM (inactive)	23.5 µM (inactive)	–	23.6 µM (inactive)	24.2 µM (inactive)	32.7 µM (inactive)	25.8 µM (inactive)	25.3 µM (inactive)	20.9 µM (inactive)	22.6 µM (inactive)	30.1 µM (inactive)	–	–	19.7 µM (inactive)	–	43.2 µM	31.9 µM (inactive)	27.4 µM (inactive)	20.6 µM (inactive)	23 µM (inactive)
O=C(O)C1CCCN(CCc2c[nH]c3ccccc23)C1 (stereo not given)	> 100 µM (inactive)	> 100 µM (inactive)	> 100 µM (inactive)	–	> 100 µM (inactive)	> 100 µM (inactive)	> 100 µM (inactive)	> 100 µM (inactive)	> 100 µM (inactive)	> 100 µM (inactive)	> 100 µM (inactive)	> 100 µM (inactive)	> 100 µM (inactive)	> 100 µM (inactive)	> 100 µM (inactive)	> 100 µM	> 100 µM (inactive)	> 100 µM (inactive)	> 100 µM (inactive)	> 100 µM (inactive)
